Results taken from patent US20070117743A1, “New antitumoral compounds” (priority 2003, published 2007).
Where a SMILES comes first, the peptide text is derived from it. Bridges are numbered along the chain shown (N, C = ends). [ ]: non-standard residue; d: D form. The star is where a group is joined. d(aIle) = CC[C@H](C)[C@@H](N)C(=O)O; d(aThr) = C[C@@H](O)[C@@H](N)C(=O)O; Hexanoyl(5-Me) = CC(C)CCCC(=O)*; Orn = NCCC[C@H](N)C(=O)O; Dhb = C/C=C(\N)C(=O)O

Assays:
Assay type in all cases: cell-based, human
[1] = system: A-549; test: SRB colorimetric assay of cell growth and viability, A-549; details: A-549, 48 hours exposure; for GI50: read-out: GI50 A-549; for CC50: read-out: LC50 A-549
[2] = system: SK-MEL-28; test: SRB colorimetric assay of cell growth and viability, SK-MEL-28; details: MEL-28, 48 hours exposure; for CC50: read-out: LC50 MEL-28
[3] = system: HT-29; test: SRB colorimetric assay of cell growth and viability, HT-29; details: HT-29, 48 hours exposure; for GI50: read-out: GI50 HT-29; for CC50: read-out: LC50 HT-29
[4] = system: LoVo-Dox; test: SRB colorimetric assay of cell growth and viability, LoVo-Dox; details: LOVO-DOX, 48 hours exposure; for CC50: read-out: LC50 LOVO-DOX
Method in brief: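 Cells in RPMI 1640 with 10% FBS were seeded at 5×10^3 per well and left 18 hours drug-free before compounds (10 to 10^−8 μg/mL in DMSO:EtOH:PBS 0.5:0.5:99) were added for 48 hours. TCA-fixed cells were stained with SRB and read at 490 nm; triplicate wells gave GI, TGI and LC.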

[5] = system: DU-145; test: SRB colorimetric assay of cell growth and viability, DU-145; details: DU-145; 48 hours exposure
[6] = system: LNCaP; test: SRB colorimetric assay of cell growth and viability, LNCaP; details: LN-caP, 48 hours exposure; for CC50: read-out: LC50 LN-caP
[7] = system: SK-BR-3; test: SRB colorimetric assay of cell growth and viability, SK-BR-3; details: SK-BR-3; 48 hours exposure
[8] = system: IGROV-1; test: SRB colorimetric assay of cell growth and viability, IGROV-1; details: IGROV; 48 hours exposure
[9] = system: IGROV-ET; test: SRB colorimetric assay of cell growth and viability, IGROV-ET; details: IGROV-ET, 48 hours exposure; for CC50: read-out: LC50 IGROV-ET
[10] = system: HeLa; test: SRB colorimetric assay of cell growth and viability, HeLa; details: HELA, 48 hours exposure; for CC50: read-out: LC50 HELA
[11] = system: HeLa-APL; test: SRB colorimetric assay of cell growth and viability, HeLa-APL; details: HELA-APL, 48 hours exposure; for CC50: read-out: LC50 HELA-APL
[12] = system: K-562; test: SRB colorimetric assay of cell growth and viability, K-562; details: K-562, 48 hours exposure; for CC50: read-out: LC50 K-562
[13] = system: PANC-1; test: SRB colorimetric assay of cell growth and viability, PANC-1; details: PANC-1, 48 hours exposure; for CC50: read-out: LC50 PANC-1

SMILES | TGI A-549 [1] [Molar] | GI50 [1] [nM] | CC50 [1] [nM] | GI50 [2] [nM] | TGI MEL-28 [2] [Molar] | CC50 [2] [nM] | TGI HT-29 [3] [Molar] | GI50 [3] [nM] | CC50 [3] [nM] | GI50 [4] [nM] | TGI LOVO-DOX [4] [Molar] | CC50 [4] [nM] | GI50 [5] [nM] | LC50 (concentration causing 50% net cell kill) [5] [nM] | TGI DU-145 [5] [Molar] | GI50 [6] [nM] | TGI LN-caP [6] [Molar] | CC50 [6] [nM] | GI50 [7] [nM] | LC50 [7] [nM] | further results
C/C=C1\NC(=O)[C@H](Cc2ccccc2)NC(=O)[C@@H](C(C)C)NC(=O)[C@@H]([C@@H](C)CC)NC(=O)[C@H](NC(=O)[C@H](NC(=O)[C@H](CCCN)NC(=O)[C@H]2CCCN2C(=O)[C@H](NC(=O)[C@@H](NC(=O)[C@@H](NC(=O)[C@@H](CCCN)NC(=O)CCCC(C)C)[C@@H](C)O)C(C)C)C(C)C)[C@@H](C)CC)[C@@H](C)OC(=O)[C@H](C(C)C)NC1=O [Compound 118, [D-Orn^13]-KF] | 4.21E−06 | 1960 | 6700 | 1490 | 2.88E−06 | 5550 | 2.84E−06 | 1200 | 6700 | 1590 | 3.28E−06 | 6700 | 1860 | 6700 | 3.84E−06 | 2870 | 6.70E−06 | 6700 | 851 | 4420 | TGI SK-BR-3 [7]: 1.94E−06 Molar; GI50 [8]: 1450 nM; LC50 (concentration causing 50% net cell killing) [8]: 5240 nM; TGI IGROV [8]: 2.76E−06 Molar; GI50 [9]: 1850 nM; TGI IGROV-ET [9]: 3.74E−06 Molar; CC50 [9]: 6700 nM; GI50 [10]: 1570 nM; TGI HELA [10]: 3.30E−06 Molar; CC50 [10]: 6700 nM; GI50 [11]: 1860 nM; TGI HELA-APL [11]: 4.15E−06 Molar; CC50 [11]: 6700 nM; GI50 [12]: 1600 nM; TGI K-562 [12]: 3.92E−06 Molar; CC50 [12]: 6700 nM; GI50 [13]: 2090 nM; TGI PANC-1 [13]: 4.74E−06 Molar; CC50 [13]: 6700 nM
C/C=C1\NC(=O)[C@H](Cc2ccccc2)NC(=O)[C@@H](C(C)C)NC(=O)[C@@H]([C@@H](C)CC)NC(=O)[C@H](NC(=O)[C@H](NC(=O)[C@H](CCCN)NC(=O)[C@H]2CCCN2C(=O)[C@H](NC(=O)[C@@H](NC(=O)[C@H](CC(C)C)NC(=O)[C@H](NC(=O)CCCC(C)C)C(C)C)C(C)C)C(C)C)[C@@H](C)CC)[C@@H](C)OC(=O)[C@H](C(C)C)NC1=O [Compound 113, [Leu^12]-KF] ({Hexanoyl(5-Me)}-[dV]LV[dV][dP][Orn][d(aIle)][d(aThr)][d(aIle)][dV]F[Dhb]V; ester 8-C) | 2.95E−06 | 1440 | 6040 | 1420 | 2.77E−06 | 5370 | 1.76E−06 | 691 | 4500 | 226 | 6.11E−07 | 6710 | 906 | 5090 | 2.14E−06 | 906 | 2.20E−06 | 5320 | 292 | 6710 | TGI SK-BR-3 [7]: 6.13E−07 Molar; GI50 [8]: 415 nM; LC50 (concentration causing 50% net cell killing) [8]: 6710 nM; TGI IGROV [8]: 1.70E−06 Molar; GI50 [9]: 926 nM; TGI IGROV-ET [9]: 2.48E−06 Molar; CC50 [9]: 6620 nM; GI50 [10]: 191 nM; TGI HELA [10]: 4.95E−07 Molar; CC50 [10]: 5790 nM; GI50 [11]: 1190 nM; TGI HELA-APL [11]: 2.59E−06 Molar; CC50 [11]: 5660 nM; GI50 [12]: 1840 nM; TGI K-562 [12]: 3.24E−06 Molar; CC50 [12]: 5720 nM; GI50 [13]: 1820 nM; TGI PANC-1 [13]: 4.89E−06 Molar; CC50 [13]: 6710 nM
C/C=C1\NC(=O)[C@H](Cc2ccccc2)NC(=O)[C@@H](C(C)C)NC(=O)[C@@H]([C@@H](C)CC)NC(=O)[C@H](NC(=O)[C@H](NC(=O)[C@H](CCCN)NC(=O)[C@H]2CCCN2C(=O)[C@H](NC(=O)[C@@H](NC(=O)[C@H](Cc2ccccc2)NC(=O)[C@H](NC(=O)CCCC(C)C)C(C)C)C(C)C)C(C)C)[C@@H](C)CC)[C@@H](C)OC(=O)[C@H](C(C)C)NC1=O [Compound 114, [Phe^12]-KF] ({Hexanoyl(5-Me)}-[dV]FV[dV][dP][Orn][d(aIle)][d(aThr)][d(aIle)][dV]F[Dhb]V; ester 8-C) | 3.50E−07 | 157 | 1520 | 170 | 3.36E−07 | 748 | 3.22E−07 | 157 | 696 | 180 | 3.94E−07 | 4270 | 180 | 1730 | 3.75E−07 | 53 | 3.00E−07 | 4700 | 207 | 6560 | TGI SK-BR-3 [7]: 4.62E−07 Molar; GI50 [8]: 114 nM; LC50 (concentration causing 50% net cell killing) [8]: 6560 nM; TGI IGROV [8]: 3.10E−07 Molar; GI50 [9]: 301 nM; TGI IGROV-ET [9]: 8.40E−07 Molar; CC50 [9]: 6380 nM; GI50 [10]: 259 nM; TGI HELA [10]: 9.25E−07 Molar; CC50 [10]: 5690 nM; GI50 [11]: 143 nM; TGI HELA-APL [11]: 3.49E−07 Molar; CC50 [11]: 2030 nM; GI50 [12]: 78.7 nM; TGI K-562 [12]: 3.71E−07 Molar; CC50 [12]: 4030 nM; GI50 [13]: 233 nM; TGI PANC-1 [13]: 1.16E−06 Molar; CC50 [13]: 6560 nM
C/C=C1\NC(=O)[C@H](Cc2ccccc2)NC(=O)[C@@H](C(C)C)NC(=O)[C@@H]([C@@H](C)CC)NC(=O)[C@H](NC(=O)[C@H](NC(=O)[C@H](CCCN)NC(=O)[C@H]2CCCN2C(=O)[C@H](NC(=O)[C@@H](NC(=O)[C@H](CCCN)NC(=O)[C@H](NC(=O)CCCC(C)C)C(C)C)C(C)C)C(C)C)[C@@H](C)CC)[C@@H](C)OC(=O)[C@H](C(C)C)NC1=O [Compound 116, [Orn^12]-KF] ({Hexanoyl(5-Me)}-[dV][Orn]V[dV][dP][Orn][d(aIle)][d(aThr)][d(aIle)][dV]F[Dhb]V; ester 8-C) | 6.71E−06 | 6710 | 6710 | 4320 | 6.71E−06 | 6710 | 3.88E−06 | 2240 | 6710 | 1940 | 3.71E−06 | 6710 | 3320 | 6710 | 6.71E−06 | 1540 | 3.10E−06 | 6240 | 1450 | 5510 | TGI SK-BR-3 [7]: 2.82E−06 Molar; GI50 [8]: 2050 nM; LC50 (concentration causing 50% net cell killing) [8]: 6710 nM; TGI IGROV [8]: 3.86E−06 Molar; GI50 [9]: 1870 nM; TGI IGROV-ET [9]: 3.23E−06 Molar; CC50 [9]: 5550 nM; GI50 [10]: 1540 nM; TGI HELA [10]: 3.35E−06 Molar; CC50 [10]: 6710 nM; GI50 [11]: 3000 nM; TGI HELA-APL [11]: 6.71E−06 Molar; CC50 [11]: 6710 nM; GI50 [12]: 919 nM; TGI K-562 [12]: 2.34E−06 Molar; CC50 [12]: 5940 nM; GI50 [13]: 6080 nM; TGI PANC-1 [13]: 6.71E−06 Molar; CC50 [13]: 6710 nM
